Measurements: US20220299500A1, “NDUFS2 SUBUNIT KNOCKOUT HUMAN CELL LINE” (priority 2019, published 2022)
Entries after “also recorded” stand apart in the source; their conditions may differ.

Assays:
Type in all cases: cell-based, human
mutant HEK293ΔNDUFS2 [1] = test: ATP synthesis in presence of respiratory inhibitor, Mitochondrial ToxGlo Assay; conditions: Antimycin A added to reaction media
Method: (§1) ATP synthesis and cell-membrane integrity of strains. Potential mitochondrial dysfunction of strains was assessed by using the Mitochondrial ToxGlo Assay (Promega Corporation, Madison, Wis.), according to the procedure described by the manufacturer. This assay is based on the measurements of biomarkers associated with changes in cell membrane integrity and cellular ATP levels. Briefly, the parent and mutant cells grown in flasks were harvested by trypsinization and resuspended in fresh medium. Approximately 10,000 cells/well were added to a 96-well plate and incubated overnight. A working stock of antimycin A, which is a mitochondrial toxin (complex III inhibitor) was prepared at a concentration of 150 μM in a glucose-free DMEM medium (Sigma-Aldrich) supplemented with 10 mM galactose (Sigma-Aldrich). Serial dilutions of the mitochondrial toxin were prepared in a separate 96-well plate (in galactose containing medium). Overnight grown cells were washed with glucose-free galactose containing medium, and fresh (galactose containing medium) was added into wells at 50 μl/well. Fifty μl volumes of the serial dilutions of toxin were transferred from the stock plate to the wells in cell culture plate. The wells carrying the vehicle controls received the medium with no toxin. The plate was incubated at 37° C. for 90 min. Twenty μl volumes of 5× Cytotoxicity Reagent were added to each well, the plate was incubated at 37° C. for further 30 min, and the fluorescence was measured at 475 nmEX/500-550 nmEM, by using a Glomax Discover plate reader (Promega Corporation). The assay plate was equilibrated to room temperature, 100 μl ATP Detection Reagent was added to each well, and luminescence was measured by using the same plate reader.

parent HEK293 [2] = test: as above; conditions: Antimycin A added to reaction media, 90 min
Method: as §1

mutant HEK293ΔNDUFS2 [3] = test: Cell-membrane porousness in presence of respiratory inhibitor, Mitochondrial ToxGlo Assay
Method: as §1

parent HEK293 [4] = test: as above; conditions: Antimycin A added to reaction medium
Method: as §1

mutant HEK293ΔNDUFS2 [5] = test: ATP synthesis of mutant cells grown with therapeutics, Mitochondrial ToxGlo Assay; conditions: for amount of ATP compared to mutant cells treated with DMSO: day 6, luminescence normalized to DMSO control; for restoration of ATP synthesis defects of the mutant: concentration not given
Method: as §1
Restoring (rescuing) the altered/lost phenotypes of the mutant with the use of potential complex I therapeutics. Effectiveness of the potential complex I therapeutics in restoring the metabolic defects of the mutant HEK293ΔNDUFS2 was evaluated. For this purpose, the mutant cells were treated with the therapeutic idebenone or its analog SBT-220 and change in ATP synthesis was examined. In this procedure, the mutant cells were suspended in culture media supplemented with 0, 1, or 10 μM of idebenone, conjugate SBT-220, conjugate SBT-222, or elamipretide, and plated in 96 well plates at 2,000 cells/well. Cells suspended in DMSO served as controls. Fresh media (with or without therapeutics) were added on days 0, 3 and 5. Cellular ATP synthesis was assessed on day 6 of incubation by using the Mitochondrial ToxGlo Assay, as described above. The responses of ATP synthesis in the treatment groups were normalized to that of the control group.
(§2) Restoring (rescuing) the impaired growth and respiration the mutant. Effectiveness of the potential Complex I therapeutic idebenone in restoring the ATP synthesis defects of the mutant HEK293ΔNDUFS2 was evaluated. In this procedure, mutant cells were cultured in media supplemented with 1 μM of idebenone in 96-well plates at 2,000 cells/well. Fresh media (with or without the therapeutic) were added on days 0, 3 and 5. Cellular ATP pool was assessed on day 6 of incubation by Mitochondrial ToxGlo Assay. Mutant cells were also cultured in 6-well plates at 2000 cells/well in medium supplemented 0.5, 1, 5, or 10 μM of idebenone. Fresh media containing the drug was added on days 3, 6 and 9, and the cell counts in wells of triplicates was determined following 10 days incubation. Efficacy of idebenone in improving respiration of permeabilized mutant cells was measured by O2k respirometry as described above with the following modification: subsequent to glutamate+malate injection, idebenone was injected into chambers at 1 μM final concentration. The control groups received DMSO.

[6] = system: permeabilized mutant HEK293ΔNDUFS2 cells; test: Oxygen consumption of permeabilized mutant cells, Oroboros O2k respirometry
Method: Mitochondrial respiration measurements with Oroboros O2K respirometry. Oxygen consumption rate (OCR) of strains was determined using protocols described elsewhere (Alleman R J, et al. Am J Physiol Heart Circ Physiol 2016, 310(10):H1360-1370; Goswami I, et al. Biophys J 2018, 114(12):2951-2964). Briefly, the parent type HEK293 and the mutant HEK293ΔNDUFS2 grown for eight days in 225 cm^2 flasks for 75-80% confluence were harvested by treatment with trypsin-EDTA, centrifuged at 300×g for 3 min, and resuspended in assay buffer Z (105 mM 2-(N-Morpholino)ethanesulfonic acid potassium salt, 30 mM KCl, 10 mM KH2PO4, 5 mM MgCl2-6H2O, 0.5 mg/mL bovine serum albumin, 20 mM creatine, 1 mM EGTA [pH 7.1] in dH2O). Approximately one million cells in 2 ml volumes were then introduced into the Oroboros O2K respiration chamber, which is equipped with calibrated oxygen measuring polarographic sensors. The oxygen signals were allowed to stabilize before closing the chamber to the outside air while chamber temperature was maintained at 37° C. Subsequently, the OCR was recorded after injection with none (basal), 2 mM of malate plus 10 mM glutamate (G/M), 5 mM of adenosine diphosphate (ADP), and 1.0 μM protonophore Carbonyl cyanide 4-(trifluoromethoxy)phenylhydrazone (FCCP).
Cell growth and metabolism. To measure the cell proliferation of parent HEK293 and mutant HEK293ΔNDUFS2, aliquots of 50,000 cells were introduced into 75 cm^2 flasks each carrying 25 ml growth media and cell numbers were quantified in triplicates after 4 and 6 days of incubation. Extracellular Acidification Rate (ECAR) was determined with an Agilent Seahorse XFe96 analyzer (Ryall J G. Methods Mol Biol 2017, 1556:245-253). Cellular ATP pool and cell-membrane porousness were measured using Mitochondrial ToxGlo Assay (Promega Corporation, Madison, Wis.). Oxygen consumption of saponin-permeabilized cells (Hahn D, et al. Am J Physiol Cell Physiol 2019, 317(4):C665-C673) was measured by Oroboros O2k respirometry (Alleman R J, et al. Am J Physiol Heart Circ Physiol 2016, 310(10):H1360-1370; Goswami I, et al. Biophys J 2018, 114(12):2951-2964).
as §2

mutant HEK293ΔNDUFS2 [7] = test: Cell growth of mutant cultures treated for 10 days (cell counts)
Method: as §2

[8] = 1 μM final concentration, vs DMSO

Antimycin A
decline of ATP synthesis in the mutant compared to the parent (mutant HEK293ΔNDUFS2 [1]): up to 2.2 folds
ATP synthesis ability (mutant HEK293ΔNDUFS2 [1]; 90 min): declined drastically
ATP synthesis ability (parent HEK293 [2]): declined drastically
membrane porousness (mutant HEK293ΔNDUFS2 [3]; Antimycin A added to reaction medium): more porous
cell membrane porousness of the mutant relative to the parent (mutant HEK293ΔNDUFS2 [3]; as a result of antimycin A treatment): up to 4.5 folds
membrane porousness (parent HEK293 [4]): more porous

elamipretide
amount of ATP compared to mutant cells treated with DMSO (mutant HEK293ΔNDUFS2 [5]; 1 μM): 2.1 folds
restoration of ATP synthesis defects of the mutant (mutant HEK293ΔNDUFS2 [5]): partially restored

COC1=C(OC)C(=O)C(CCCCCCCCCCO)=C(C)C1=O [idebenone]
Complex I respiration ([6]; 1 μM final concentration injected after glutamate+malate, vs DMSO): improved significantly
Complex II respiration [6, 8]: improved significantly
OXPHOS capacity [6, 8]: improved significantly
maximal respiration [6, 8]: improved significantly
oxygen consumption all along the ETC ([6]; idebenone treatment vs DMSO): improved oxygen consumption all along the ETC
more cells recovered compared to the DMSO control (mutant HEK293ΔNDUFS2 [7]; 0.5 μM, 10 days): 32.1%
cell proliferation (mutant HEK293ΔNDUFS2 [7]; 0.5 μM, long-term treatment): enhanced cell proliferation
growth of the mutant (mutant HEK293ΔNDUFS2 [7]; 1 μM, 10 days): did not improve growth
growth of the mutant (mutant HEK293ΔNDUFS2 [7]; 5 μM, 10 days): did not improve growth
effect on mutant cells in growth test (mutant HEK293ΔNDUFS2 [7]; 10 μM, 10 days): caused cell death
amount of ATP compared to mutant cells treated with DMSO (mutant HEK293ΔNDUFS2 [5]; 1 μM): 2.4 folds
restoration of ATP synthesis / ATP pool of the mutant (mutant HEK293ΔNDUFS2 [5]; 1 μM, long-term treatment (six days)): restored the ATP synthesis of the mutant to some extent; also recorded: significantly greater amount of ATP; also recorded: improved ATP pool
improvement of ATP synthesis defects of the mutant (mutant HEK293ΔNDUFS2 [5]; 10 μM): failed to improve
restoration of ATP synthesis defects of the mutant (mutant HEK293ΔNDUFS2 [5]): partially restored
